Data on eight molecules can be found in patent US20260356819A1, “OXOISOINDOLINYL-SUBSTITUTED […] DERIVATIVE AND USE THEREOF” (GLUETACS THERAPEUTICS (SHANGHAI) CO., LTD., priority 2023, published 2026).

Holding throughout (format): cell-based
Settings in all cases: compounds at 50 nM and 500 nM

One assay has as its target T1, WEE1 (Homo sapiens, UniProt P30291+Q96SW2).
T1 construct: The supernatant was aspirated as the extracted total cell protein; endogenous in cells; host or cells: human peripheral blood mononuclear cells (hPBMCs)
The assay is described as follows: Western blot degradation of WEE1 in hPBMCs (24 h). The gist of the method: (§1)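 Degradation in primary human PBMCs after 24 h compound exposure at 50 and 500 nM. Western blot band intensities, normalised to an internal control protein, expressed as % protein remaining relative to DMSO.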
(Immunoblotting shows a protein as a band on a membrane.)

The target in another assay is T2, IKZF3 (Homo sapiens, UniProt Q96SW2+Q9UKT9).
T2 construct: The supernatant was aspirated as the extracted total cell protein; endogenous in cells; host or cells: human peripheral blood mononuclear cells (hPBMCs)
In words: Western blot degradation of IKZF3 in hPBMCs (24 h). The gist of the method:
as §1

A further assay deals with T3, IKZF2 (Homo sapiens, UniProt Q96SW2+Q9UKS7).
T3 construct: The supernatant was aspirated as the extracted total cell protein; endogenous in cells; host or cells: human peripheral blood mononuclear cells (hPBMCs)
The assay is described as follows: Western blot degradation of IKZF2 in hPBMCs (24 h). The gist of the method: as §1

The target of a further assay is T4, GSPT1 (Homo sapiens, UniProt P15170+Q96SW2).
T4 construct: The supernatant was aspirated as the extracted total cell protein; endogenous in cells; host or cells: human peripheral blood mononuclear cells (hPBMCs)
The assay is described as follows: Western blot degradation of GSPT1 in hPBMCs (24 h). In short, it runs like this: as §1

For a further assay, the target named is T5, IKZF1 (Homo sapiens, UniProt Q13422+Q96SW2).
T5 construct: The supernatant was aspirated as the extracted total cell protein; endogenous in cells; host or cells: human peripheral blood mononuclear cells (hPBMCs)
The assay is described as follows: Western blot degradation of IKZF1 in hPBMCs (24 h). In short, it runs like this:
as §1

For another assay, the target named is T6, CK1α (Homo sapiens, UniProt P48729+Q96SW2).
T6 construct: The supernatant was aspirated as the extracted total cell protein; endogenous in cells; host or cells: human peripheral blood mononuclear cells (hPBMCs)
The assay is described as follows: Western blot degradation of CK1α in hPBMCs (24 h). The gist of the method:
as §1

T3 sequence (Q9UKS7 whole entry): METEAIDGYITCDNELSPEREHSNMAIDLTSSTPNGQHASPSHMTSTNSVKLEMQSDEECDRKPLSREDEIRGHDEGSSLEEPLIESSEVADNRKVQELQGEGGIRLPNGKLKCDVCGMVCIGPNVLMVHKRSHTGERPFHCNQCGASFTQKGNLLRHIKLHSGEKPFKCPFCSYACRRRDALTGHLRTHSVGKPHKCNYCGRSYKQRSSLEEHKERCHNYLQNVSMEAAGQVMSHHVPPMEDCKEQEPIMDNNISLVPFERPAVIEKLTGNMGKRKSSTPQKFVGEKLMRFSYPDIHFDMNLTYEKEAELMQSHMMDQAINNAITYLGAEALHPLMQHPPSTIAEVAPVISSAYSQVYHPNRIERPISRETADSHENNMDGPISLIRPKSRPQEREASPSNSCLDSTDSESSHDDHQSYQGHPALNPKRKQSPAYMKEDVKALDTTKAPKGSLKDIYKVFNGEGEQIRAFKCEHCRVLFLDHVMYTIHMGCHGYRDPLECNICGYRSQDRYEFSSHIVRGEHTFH
T3 sequence (Q96SW2 whole entry): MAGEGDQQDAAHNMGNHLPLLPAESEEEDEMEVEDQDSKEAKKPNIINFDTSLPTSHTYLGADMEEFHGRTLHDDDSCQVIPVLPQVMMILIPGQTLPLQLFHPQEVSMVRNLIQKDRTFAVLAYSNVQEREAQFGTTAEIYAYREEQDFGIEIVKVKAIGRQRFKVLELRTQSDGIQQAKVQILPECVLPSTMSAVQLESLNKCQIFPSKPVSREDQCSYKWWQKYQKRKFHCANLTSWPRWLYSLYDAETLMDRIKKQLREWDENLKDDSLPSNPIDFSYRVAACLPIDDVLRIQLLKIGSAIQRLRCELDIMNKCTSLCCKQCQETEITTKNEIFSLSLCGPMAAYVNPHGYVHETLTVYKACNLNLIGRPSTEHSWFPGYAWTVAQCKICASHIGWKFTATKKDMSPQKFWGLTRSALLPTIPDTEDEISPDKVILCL
T3 sequence (Q16531 whole entry partner): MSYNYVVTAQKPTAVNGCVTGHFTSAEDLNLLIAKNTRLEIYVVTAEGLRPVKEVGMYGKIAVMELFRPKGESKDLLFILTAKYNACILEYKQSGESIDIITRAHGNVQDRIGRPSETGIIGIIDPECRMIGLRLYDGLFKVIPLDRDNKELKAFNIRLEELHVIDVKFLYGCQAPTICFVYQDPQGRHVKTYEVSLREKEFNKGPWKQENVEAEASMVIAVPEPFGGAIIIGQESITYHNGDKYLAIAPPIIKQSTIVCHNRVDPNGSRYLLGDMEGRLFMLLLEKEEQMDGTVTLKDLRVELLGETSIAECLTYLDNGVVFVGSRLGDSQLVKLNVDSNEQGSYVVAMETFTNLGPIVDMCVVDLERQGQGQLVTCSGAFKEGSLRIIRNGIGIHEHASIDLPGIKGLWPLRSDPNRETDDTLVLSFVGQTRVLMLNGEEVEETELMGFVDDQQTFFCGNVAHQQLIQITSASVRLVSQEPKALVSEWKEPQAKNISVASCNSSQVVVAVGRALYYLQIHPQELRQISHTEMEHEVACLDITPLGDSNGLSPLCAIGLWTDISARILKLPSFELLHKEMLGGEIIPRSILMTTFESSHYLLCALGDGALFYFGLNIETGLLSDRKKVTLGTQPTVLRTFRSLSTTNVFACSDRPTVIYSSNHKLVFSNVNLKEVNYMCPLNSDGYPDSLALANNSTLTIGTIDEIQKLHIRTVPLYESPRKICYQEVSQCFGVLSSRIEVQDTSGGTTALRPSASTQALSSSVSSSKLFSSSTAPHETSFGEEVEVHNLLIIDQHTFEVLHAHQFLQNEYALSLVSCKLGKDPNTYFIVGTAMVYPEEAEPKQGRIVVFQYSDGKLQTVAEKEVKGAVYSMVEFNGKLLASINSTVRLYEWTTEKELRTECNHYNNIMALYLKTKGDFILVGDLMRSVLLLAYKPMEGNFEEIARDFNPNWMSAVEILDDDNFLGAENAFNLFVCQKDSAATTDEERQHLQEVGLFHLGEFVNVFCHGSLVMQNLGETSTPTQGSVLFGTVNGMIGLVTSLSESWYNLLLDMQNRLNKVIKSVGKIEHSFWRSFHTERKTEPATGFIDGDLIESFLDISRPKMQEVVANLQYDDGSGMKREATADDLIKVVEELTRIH
T2 sequence (Q9UKT9 whole entry): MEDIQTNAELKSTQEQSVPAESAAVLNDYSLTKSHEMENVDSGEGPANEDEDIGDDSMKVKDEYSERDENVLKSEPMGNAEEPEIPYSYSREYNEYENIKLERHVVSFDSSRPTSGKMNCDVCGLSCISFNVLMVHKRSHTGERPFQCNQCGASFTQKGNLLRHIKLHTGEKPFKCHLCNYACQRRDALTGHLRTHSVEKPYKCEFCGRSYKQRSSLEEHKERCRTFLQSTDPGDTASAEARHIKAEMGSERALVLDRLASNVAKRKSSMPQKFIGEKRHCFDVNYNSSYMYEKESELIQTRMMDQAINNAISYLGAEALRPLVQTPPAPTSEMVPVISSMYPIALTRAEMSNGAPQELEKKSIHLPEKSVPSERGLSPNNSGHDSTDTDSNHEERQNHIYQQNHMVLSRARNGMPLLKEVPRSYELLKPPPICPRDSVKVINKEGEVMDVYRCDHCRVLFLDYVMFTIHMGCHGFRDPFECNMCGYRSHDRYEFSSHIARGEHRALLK
T2 sequence (Q96SW2 whole entry): as the sequence (Q96SW2 whole entry) above
T2 sequence (Q16531 whole entry partner): as the sequence (Q16531 whole entry partner) above
T1 sequence (P30291 whole entry): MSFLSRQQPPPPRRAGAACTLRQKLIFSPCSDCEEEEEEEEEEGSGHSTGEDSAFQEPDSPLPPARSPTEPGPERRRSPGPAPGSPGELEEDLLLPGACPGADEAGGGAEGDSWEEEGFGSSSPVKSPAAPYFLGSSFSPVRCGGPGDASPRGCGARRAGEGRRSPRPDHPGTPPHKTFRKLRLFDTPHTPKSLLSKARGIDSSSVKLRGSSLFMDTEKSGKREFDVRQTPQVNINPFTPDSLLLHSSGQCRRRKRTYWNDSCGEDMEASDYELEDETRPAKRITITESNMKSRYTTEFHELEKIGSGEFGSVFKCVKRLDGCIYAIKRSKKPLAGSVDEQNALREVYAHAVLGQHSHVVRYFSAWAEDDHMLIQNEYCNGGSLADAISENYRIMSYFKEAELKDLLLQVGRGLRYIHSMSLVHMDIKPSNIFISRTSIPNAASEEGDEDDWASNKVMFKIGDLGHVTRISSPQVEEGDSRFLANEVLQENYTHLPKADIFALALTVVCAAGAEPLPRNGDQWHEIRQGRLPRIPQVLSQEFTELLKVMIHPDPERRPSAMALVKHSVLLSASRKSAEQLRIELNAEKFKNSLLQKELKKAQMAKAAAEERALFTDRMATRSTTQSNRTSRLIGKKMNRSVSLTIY
T1 sequence (Q96SW2 whole entry): as the sequence (Q96SW2 whole entry) above
T1 sequence (Q16531 whole entry partner): as the sequence (Q16531 whole entry partner) above
T6 sequence (P48729 whole entry): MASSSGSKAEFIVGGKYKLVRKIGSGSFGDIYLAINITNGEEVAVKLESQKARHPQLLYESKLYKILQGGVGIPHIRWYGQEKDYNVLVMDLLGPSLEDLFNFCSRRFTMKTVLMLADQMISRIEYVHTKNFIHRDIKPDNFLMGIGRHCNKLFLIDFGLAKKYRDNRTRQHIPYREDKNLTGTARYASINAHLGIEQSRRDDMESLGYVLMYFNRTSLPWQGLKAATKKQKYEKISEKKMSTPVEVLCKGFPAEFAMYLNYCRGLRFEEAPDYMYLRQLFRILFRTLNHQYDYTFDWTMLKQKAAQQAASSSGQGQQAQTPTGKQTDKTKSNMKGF
T6 sequence (Q96SW2 whole entry): as the sequence (Q96SW2 whole entry) above
T6 sequence (Q16531 whole entry partner): as the sequence (Q16531 whole entry partner) above
T4 sequence (P15170 whole entry): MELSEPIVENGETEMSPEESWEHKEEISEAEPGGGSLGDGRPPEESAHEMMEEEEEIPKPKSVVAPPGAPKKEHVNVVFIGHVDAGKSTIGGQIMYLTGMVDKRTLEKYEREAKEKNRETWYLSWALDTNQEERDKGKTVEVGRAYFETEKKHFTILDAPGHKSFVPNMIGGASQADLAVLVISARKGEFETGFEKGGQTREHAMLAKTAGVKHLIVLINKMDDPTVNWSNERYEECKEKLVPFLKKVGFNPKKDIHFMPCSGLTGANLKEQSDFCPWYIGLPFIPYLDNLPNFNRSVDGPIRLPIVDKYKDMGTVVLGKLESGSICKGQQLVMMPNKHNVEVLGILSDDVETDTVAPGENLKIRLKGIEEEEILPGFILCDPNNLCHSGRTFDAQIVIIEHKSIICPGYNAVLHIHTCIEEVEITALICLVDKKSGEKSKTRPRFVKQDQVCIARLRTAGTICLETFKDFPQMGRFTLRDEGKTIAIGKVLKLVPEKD
T4 sequence (Q96SW2 whole entry): as the sequence (Q96SW2 whole entry) above
T4 sequence (Q16531 whole entry partner): as the sequence (Q16531 whole entry partner) above

As for `O=C1CCN(N2Cc3cc(CN4CCC(c5ncnc6sc(-c7ccccc7)cc56)CC4)ccc3C2=O)C(=O)N1` [GT-08085, 1-(1-oxo-5-((4-(6-phenylthieno[2,3-d]pyrimidin-4-yl)piperidin-1-yl)methyl)isoindolin-2-yl)dihydropyrimidine-2,4(1H,3H)-dione], the “WEE1 substrate protein remaining %” value at WEE1 was “B (80%< substrate protein remaining % ≤100%)”. For the same molecule, at IKZF3, the “IKZF3 substrate protein remaining %” value was “B (80%< substrate protein remaining % ≤100%)”. In addition, at IKZF2, the “IKZF2 substrate protein remaining %” value was “B (80%< substrate protein remaining % ≤100%)”. Also, at GSPT1, the “GSPT1 substrate protein remaining %” value was “A (0% ≤ substrate protein remaining % ≤80%)”. For the same molecule, the “IKZF1 substrate protein remaining %” value on IKZF1 is listed as “B (80%< substrate protein remaining % ≤100%)”. Moreover, at CK1α, the “CK1α substrate protein remaining %” value is reported as “A (0% ≤ substrate protein remaining % ≤80%)”.

For `Cc1nc(C2CCN(Cc3ccc4c(c3)CN(N3CCC(=O)NC3=O)C4=O)CC2)c2ccsc2n1` [GT-08088, 1-(5-((4-(2-methylthieno[2,3-d]pyrimidin-4-yl)piperidin-1-yl)methyl)-1-oxoisoindolin-2-yl)dihydropyrimidine-2,4(1H,3H)-dione], at WEE1, the “WEE1 substrate protein remaining %” value is reported as “A (0% ≤ substrate protein remaining % ≤80%)”. Besides, the “IKZF3 substrate protein remaining %” value on IKZF3 is given as “B (80%< substrate protein remaining % ≤100%)”. Besides, the “IKZF2 substrate protein remaining %” value at IKZF2 is listed as “B (80%< substrate protein remaining % ≤100%)”. Further, the “GSPT1 substrate protein remaining %” value at GSPT1 is on record as “A (0% ≤ substrate protein remaining % ≤80%)”. Further, the “IKZF1 substrate protein remaining %” value at IKZF1 is on record as “B (80%< substrate protein remaining % ≤100%)”. Further, the “CK1α substrate protein remaining %” value on CK1α is given as “A (0% ≤ substrate protein remaining % ≤80%)”.

Take `Cc1nc(C2CCN(Cc3ccc4c(c3)CN(N3CCC(=O)NC3=O)C4=O)CC2)c2c3c(sc2n1)CCCC3` [GT-08089, 1-(5-((4-(2-methyl-5,6,7,8-tetrahydrobenzo[4,5]thieno[2,3-d]pyrimidin-4-yl)piperidin-1-yl)methyl)-1-oxoisoindolin-2-yl)dihydropyrimidine-2,4(1H,3H)-dione]: the “WEE1 substrate protein remaining %” value on WEE1 is “A (0% ≤ substrate protein remaining % ≤80%)”. For the same molecule, the “IKZF3 substrate protein remaining %” value at IKZF3 is “B (80%< substrate protein remaining % ≤100%)”. Besides, the “IKZF2 substrate protein remaining %” value at IKZF2 is on record as “B (80%< substrate protein remaining % ≤100%)”. Besides, on GSPT1, the “GSPT1 substrate protein remaining %” value is given as “A (0% ≤ substrate protein remaining % ≤80%)”. The “IKZF1 substrate protein remaining %” value at IKZF1 was “B (80%< substrate protein remaining % ≤100%)”. The “CK1α substrate protein remaining %” value on CK1α is on record as “A (0% ≤ substrate protein remaining % ≤80%)”.

On to `O=C1CCN(N2C(=O)c3ccc(CN4CCN(c5ncnc6sccc56)CC4)cc3C2=O)C(=O)N1` [GT-08090, 2-(2,4-dioxotetrahydropyrimidin-1(2H)-yl)-5-((4-(thieno[2,3-d]pyrimidin-4-yl)piperazin-1-yl)methyl)isoindoline-1,3-dione], for which, at WEE1, the “WEE1 substrate protein remaining %” value is listed as “A (0% ≤ substrate protein remaining % ≤80%)”. In addition, at IKZF3, the “IKZF3 substrate protein remaining %” value was “B (80%< substrate protein remaining % ≤100%)”. For the same molecule, the “IKZF2 substrate protein remaining %” value on IKZF2 is recorded as “B (80%< substrate protein remaining % ≤100%)”. For the same molecule, on GSPT1, the “GSPT1 substrate protein remaining %” value was “A (0% ≤ substrate protein remaining % ≤80%)”. For the same molecule, at IKZF1, the “IKZF1 substrate protein remaining %” value is given as “B (80%< substrate protein remaining % ≤100%)”. Besides, the “CK1α substrate protein remaining %” value on CK1α is listed as “A (0% ≤ substrate protein remaining % ≤80%)”.

As for `Cc1csc2ncnc(N3CCN(Cc4ccc5c(c4)C(=O)N(N4CCC(=O)NC4=O)C5=O)CC3)c12` [GT-08091, 2-(2,4-dioxotetrahydropyrimidin-1(2H)-yl)-5-((4-(5-methylthieno[2,3-d]pyrimidin-4-yl)piperazin-1-yl)methyl)isoindoline-1,3-dione], the “WEE1 substrate protein remaining %” value on WEE1 is given as “A (0% ≤ substrate protein remaining % ≤80%)”. On IKZF3, the “IKZF3 substrate protein remaining %” value was “B (80%< substrate protein remaining % ≤100%)”. Moreover, at IKZF2, the “IKZF2 substrate protein remaining %” value is given as “B (80%< substrate protein remaining % ≤100%)”. Further, the “GSPT1 substrate protein remaining %” value at GSPT1 is on record as “A (0% ≤ substrate protein remaining % ≤80%)”. Moreover, on IKZF1, the “IKZF1 substrate protein remaining %” value was “B (80%< substrate protein remaining % ≤100%)”. The “CK1α substrate protein remaining %” value at CK1α is reported as “A (0% ≤ substrate protein remaining % ≤80%)”.

Take `Cc1cc2c(N3CCN(Cc4ccc5c(c4)C(=O)N(N4CCC(=O)NC4=O)C5=O)CC3)ncnc2s1` [GT-08092, 2-(2,4-dioxotetrahydropyrimidin-1(2H)-yl)-5-((4-(6-methylthieno[2,3-d]pyrimidin-4-yl)piperazin-1-yl)methyl)isoindoline-1,3-dione]: at WEE1, the “WEE1 substrate protein remaining %” value is reported as “A (0% ≤ substrate protein remaining % ≤80%)”. Also, the “IKZF3 substrate protein remaining %” value at IKZF3 is “B (80%< substrate protein remaining % ≤100%)”. Also, the “IKZF2 substrate protein remaining %” value at IKZF2 is recorded as “B (80%< substrate protein remaining % ≤100%)”. Further, at GSPT1, the “GSPT1 substrate protein remaining %” value is “A (0% ≤ substrate protein remaining % ≤80%)”. Besides, the “IKZF1 substrate protein remaining %” value at IKZF1 was “B (80%< substrate protein remaining % ≤100%)”. Further, on CK1α, the “CK1α substrate protein remaining %” value is given as “A (0% ≤ substrate protein remaining % ≤80%)”.

For `CC(C)c1cc2c(N3CCN(Cc4ccc5c(c4)C(=O)N(N4CCC(=O)NC4=O)C5=O)CC3)ncnc2s1` [GT-08093, 2-(2,4-dioxotetrahydropyrimidin-1(2H)-yl)-5-((4-(6-isopropylthieno[2,3-d]pyrimidin-4-yl)piperazin-1-yl)methyl)isoindoline-1,3-dione], at WEE1, the “WEE1 substrate protein remaining %” value is on record as “A (0% ≤ substrate protein remaining % ≤80%)”. Moreover, at IKZF3, the “IKZF3 substrate protein remaining %” value was “B (80%< substrate protein remaining % ≤100%)”. For the same molecule, on IKZF2, the “IKZF2 substrate protein remaining %” value is “B (80%< substrate protein remaining % ≤100%)”. Besides, at GSPT1, the “GSPT1 substrate protein remaining %” value was “A (0% ≤ substrate protein remaining % ≤80%)”. Further, at IKZF1, the “IKZF1 substrate protein remaining %” value was “B (80%< substrate protein remaining % ≤100%)”. Also, at CK1α, the “CK1α substrate protein remaining %” value is listed as “A (0% ≤ substrate protein remaining % ≤80%)”.

Take `Cc1sc2ncnc(N3CCN(Cc4ccc5c(c4)C(=O)N(N4CCC(=O)NC4=O)C5=O)CC3)c2c1C` [GT-08094, 5-((4-(5,6-dimethylthieno[2,3-d]pyrimidin-4-yl)piperazin-1-yl)methyl)-2-(2,4-dioxotetrahydropyrimidin-1(2H)-yl)isoindoline-1,3-dione]: the “WEE1 substrate protein remaining %” value on WEE1 is listed as “A (0% ≤ substrate protein remaining % ≤80%)”. Further, the “IKZF3 substrate protein remaining %” value on IKZF3 is recorded as “B (80%< substrate protein remaining % ≤100%)”. On IKZF2, the “IKZF2 substrate protein remaining %” value is reported as “B (80%< substrate protein remaining % ≤100%)”. Besides, the “GSPT1 substrate protein remaining %” value on GSPT1 is “A (0% ≤ substrate protein remaining % ≤80%)”. The “IKZF1 substrate protein remaining %” value on IKZF1 is given as “B (80%< substrate protein remaining % ≤100%)”. The “CK1α substrate protein remaining %” value at CK1α is given as “A (0% ≤ substrate protein remaining % ≤80%)”.
